Where two headings read alike, the source gives them in different places.
Key:
[1] = in vitro; conditions: human, THP-1 cells differentiated with PMA
[2] = test system: Leishmania infantum MHOM/MA(BE)/67/ITMAP263 intracellular amastigotes; assay: microbe, parasite or virus in culture; conditions: Macrophage, in Mus musculus
[3] = test system: primary peritoneal mouse macrophages (PMM); assay: cells; conditions: Macrophage, read-out: PMM IC50 (uM)
[4] = in vitro; conditions: human, HFF-1 cells
[5] = in vitro; conditions: human
[6] = in vitro; conditions: human, microsomes, human liver microsomes
[7] = test system: Trypanosoma cruzi, Tulahuen CL2, beta-galactosidase strain; assay: microbe, parasite or virus in culture
[8] = in vitro; conditions: PAMPA
[9] = physchem; conditions: HPLC, Ascentis Express RP Amide column, pH 7.4, eLogD
[10] = test system: Leishmania infantum (MHOM/MA/67/ITMAP-263) intracellular amastigotes in THP-1; assay: microbe, parasite or virus in culture; conditions: THP-1, read-out: L. infantum MHOM/MA/67/ITMAP263 intracellular amastigotes THP-1 cells IC50 (uM)
[11] = in vitro; conditions: human, HepG2 cells
[12] = in vitro; conditions: mouse, microsomes, mouse liver microsomes
[13] = in vitro; conditions: Swiss, mouse
[14] = in vitro; conditions: PAMPA; remark: listed apart in the source
[15] = test system: primary peritoneal mouse macrophages (PMM); conditions: PMM IC50 / L. infantum IC50
[16] = read-out: L. Inf. pIC50, from L. infantum intracellular amastigote IC50 (converted)
[17] = read-out: L. infantum MHOM/MA(BE)/67/ITMAP263 intracellular amastigotes IC50 (uM), intracellular amastigotes
[18] = MRC5, read-out: T. cruzi Tulahuen C4 (LacZ) IC50 (uM)
[19] = read-out: L. infantum MHOM/MA(BE)/67/ITMAP263 intracellular amastigotes IC50
[20] = MRC5, read-out: T. cruzi Tulahuen C4 (LacZ) IC50

Row | SMILES | CC50 at 120 h [1] [µM] | IC50 [2, 16] [µM] | IC50 [2, 17] [µM] | IC50 [3] [µM] | CC50 [4] [µM] | CC50 at 3 days [5] [µM] | microsomal CLint at 0.5 μM ([6]; pH 7.4, HLM CLint (uL/min/mg)) [µL/min/mg] | IC50 [7, 18] [µM] | Papp [8] [×10⁻⁶ cm/s] | chromatographic logD ([9]; experimental) | IC50 [10] [µM] | CC50 [11] [µM] | microsomal CLint at 0.5 μM ([12]; pH 7.4, MLM CLint (uL/min/mg)) [µL/min/mg] | further results
1 | CCCCC1Nc2cc(Cl)c(S(N)(=O)=O)cc2S(=O)(=O)N1Cc1ccccc1 (stereo not shown) [DNDI0003392147] | 12 | 7.24 | 7.3 | > 64 | > 64 | > 64 | 22 | > 64 | 1.39 | 4 | 23.4 | > 64 | 147 | 
2 | COc1ccc(S(N)(=O)=O)cc1S(=O)(=O)NCc1ccccc1 [DNDI0003407892] | > 64 | > 64 | > 64 | > 64 | > 64 | > 64 | 20 | > 64 | 0.61 | 1.1 | > 64 | > 64 | 23 | 
3 | COc1cc2c(cc1S(=O)(=O)N(Cc1ccccc1)Cc1ccccc1)S(=O)(=O)NCN2 [DNDI0003425513] | > 64 | 2.51 | 2.53 | > 64 | 21.9 | 22.9 | 100 | 9.44 | 0.38 | 3.6 | 48.3 | > 64 | 249 | 
4 | COCCN(Cc1ccccc1)S(=O)(=O)c1ccccc1OC(F)(F)F [DNDI0003392130] | > 64 | 8.32 | 8.27 | > 64 | 45.1 | > 64 | 194 | 17.8 | 5.26 | 3.8 | 31.2 | > 64 | 222 | 
5 | O=S(=O)(NCc1ccccc1)c1cc2c(cc1Cl)NCN(Cc1ccccc1)S2(=O)=O [DNDI0003392144] | 53.2 | > 64 | > 64 | > 64 | 60.2 | > 64 | 82 | 35.7 | 1.61 | 3.7 | > 64 | > 64 | 261 | 
6 | COc1ccc(C(=O)N2CCOCC2)cc1S(=O)(=O)N(Cc1ccc(C(F)(F)F)nc1)C(C)c1ccc(F)cc1 (stereo not shown) [DNDI0003407905] | > 64 | 2.34 | 2.36 | > 64 | 49.4 | > 64 | 267 | 25 | 18.1 | 3.8 | 9.86 | > 64 | 531 | 
7 | O=C(c1ccc(OCC2CCCO2)c(S(=O)(=O)NCc2ccccc2)c1)N1CCOCC1 (stereo not shown) [DNDI0003407877] | > 64 | > 64 | > 64 | > 64 | > 64 | > 64 | 85 | 31 | 14.7 | 2.7 | > 64 | > 64 | 181 | 
8 | COc1ccc(OC)c(S(=O)(=O)N(Cc2ccccc2)Cc2ccccc2)c1 [DNDI0003292440] |  | 0.372 |  |  |  | 45.2 |  |  |  |  |  |  |  | IC50 [13]: > 64 µM; IC50 [2, 19]: 0.36 µM; microsomal CLint at 0.5 μM ([6]; pH 7.4, HLM CLint): 242 µL/min/mg; IC50 [7, 20]: 5.71 µM; Papp [14]: 0.43 ×10⁻⁶ cm/s; microsomal CLint at 0.5 μM ([12]; pH 7.4, MLM CLint): 1300 µL/min/mg
9 | CCCCOc1ccc(C(=O)N2CCOCC2)cc1S(=O)(=O)NCc1ccccc1 [DNDI0003407874] | > 64 | > 64 | > 64 | > 64 | > 64 | > 64 | 160 | 45.9 | 27.4 | 3.1 | > 64 | > 64 | 274 | 
10 | COc1ccc(Cl)cc1S(=O)(=O)N(Cc1ccccc1)C1COC(=O)OC1 [DNDI0003392146] | > 64 | 17 | 16.9 | > 64 | 54.8 | 59.1 | 21 | 17 | 13.2 | 3.5 | > 64 | > 64 | 118 | 
11 | COc1ccc(S(C)(=O)=O)cc1S(=O)(=O)N(Cc1ccccc1)Cc1cc(C(F)(F)F)nn1C [DNDI0003578374] | > 64 | 13.2 | 13.1 | > 64 | > 64 | > 64 | 60 | > 64 | 7.6 | 3.5 | > 64 | > 64 | 182 | 
12 | NS(=O)(=O)c1cc2c(cc1Cl)NCN(Cc1ccccc1)S2(=O)=O [DNDI0003392143] | > 64 | 57.5 | 57 | > 64 | > 64 | > 64 | 21 | 27.2 | 2.83 | 2.3 | > 64 | > 64 | 164 | 
13 | COc1ccc(C#N)cc1S(=O)(=O)N(Cc1ccc(C(F)(F)F)nc1)Cc1ccc(C(F)(F)F)nc1 [DNDI0003578377] | > 64 | 38 | 38.1 | > 64 | > 64 | > 64 | 17 | 61.7 | 3.45 | 3.9 | > 64 | > 64 | 64 | 
14 | CCCCC(=O)Nc1cccnc1S(=O)(=O)CCc1ccccc1 [DNDI0003363561] |  | > 64 |  |  |  | > 64 |  |  |  |  |  |  |  | SI (vs PMM) [15]: 1; IC50 [13]: > 64 µM; IC50 [2, 19]: > 64 µM; IC50 [7, 20]: > 64 µM; Papp [14]: 18.9 ×10⁻⁶ cm/s; chromatographic logD [9]: 3.9
